We go through 4 compounds from US12233070B2, “Methods for treating benzodiazepine misuse/use disorder” (University of M[…] Center, priority 2020, dated 2025).

Data set [1] deals with α1 subunit-containing GABAA receptors (Homo sapiens, UniProt P14867+P18507). Also on record: key to Subtype α1: act as partial positive modulators for particular subtype combinations; none: zero efficacy (i.e., antagonism) at other subtypes. The conditions noted are these: cited from earlier work.
Data set [2] concerns the target α5 subunit-containing GABAA receptors (Homo sapiens, UniProt P18507+P31644). On the set-up: key to Subtype α5: act as partial positive modulators for particular subtype combinations; none: zero efficacy (i.e., antagonism) at other subtypes. Conditions: cited from earlier work.
On the set-up of data set [3]: key to Pharmacokinetics: “poor” - low bioavailability and/or short half-life; “good” - potent with long half-life. Conditions: in vivo; cited from earlier work.
Data set [4] has as its target α2 subunit-containing GABAA receptors (Homo sapiens, UniProt P18507+P47869). Also on record: key: act as partial positive modulators for particular subtype combinations; none: zero efficacy (i.e., antagonism) at other subtypes. Conditions: cited from earlier work.
Data set [5] deals with α3 subunit-containing GABAA receptors (Homo sapiens, UniProt P18507+P34903). On the set-up: key: act as partial positive modulators for particular subtype combinations; none: zero efficacy (i.e., antagonism) at other subtypes. Conditions: cited from earlier work.
Sequence of α3 subunit-containing GABAA receptors (P34903 29-492): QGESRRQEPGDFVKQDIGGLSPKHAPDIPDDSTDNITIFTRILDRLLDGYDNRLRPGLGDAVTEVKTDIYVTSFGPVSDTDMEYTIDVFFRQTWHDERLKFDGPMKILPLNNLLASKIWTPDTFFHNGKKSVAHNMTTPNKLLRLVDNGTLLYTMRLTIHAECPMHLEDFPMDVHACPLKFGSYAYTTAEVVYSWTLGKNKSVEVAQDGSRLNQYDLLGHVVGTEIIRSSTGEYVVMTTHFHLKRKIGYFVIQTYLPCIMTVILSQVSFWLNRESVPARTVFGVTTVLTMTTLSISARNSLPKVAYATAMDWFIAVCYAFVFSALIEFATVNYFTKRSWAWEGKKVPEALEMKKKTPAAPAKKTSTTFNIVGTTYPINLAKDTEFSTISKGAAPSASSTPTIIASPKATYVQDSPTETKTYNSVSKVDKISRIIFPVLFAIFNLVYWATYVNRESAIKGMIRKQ
Sequence of α3 subunit-containing GABAA receptors (P18507 40-475): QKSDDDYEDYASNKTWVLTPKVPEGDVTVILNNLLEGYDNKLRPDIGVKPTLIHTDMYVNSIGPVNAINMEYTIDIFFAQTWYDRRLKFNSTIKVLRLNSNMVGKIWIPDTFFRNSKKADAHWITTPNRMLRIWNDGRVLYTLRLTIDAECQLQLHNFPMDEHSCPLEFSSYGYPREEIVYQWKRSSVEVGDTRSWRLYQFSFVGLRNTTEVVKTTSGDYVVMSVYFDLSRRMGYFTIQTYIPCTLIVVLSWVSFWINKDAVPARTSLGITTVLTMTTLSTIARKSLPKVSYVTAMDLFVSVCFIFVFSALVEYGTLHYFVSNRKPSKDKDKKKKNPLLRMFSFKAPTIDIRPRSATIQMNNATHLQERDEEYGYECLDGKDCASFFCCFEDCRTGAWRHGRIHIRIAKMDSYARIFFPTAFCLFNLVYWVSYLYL
Sequence of α3 subunit-containing GABAA receptors (P28472 26-473 partner): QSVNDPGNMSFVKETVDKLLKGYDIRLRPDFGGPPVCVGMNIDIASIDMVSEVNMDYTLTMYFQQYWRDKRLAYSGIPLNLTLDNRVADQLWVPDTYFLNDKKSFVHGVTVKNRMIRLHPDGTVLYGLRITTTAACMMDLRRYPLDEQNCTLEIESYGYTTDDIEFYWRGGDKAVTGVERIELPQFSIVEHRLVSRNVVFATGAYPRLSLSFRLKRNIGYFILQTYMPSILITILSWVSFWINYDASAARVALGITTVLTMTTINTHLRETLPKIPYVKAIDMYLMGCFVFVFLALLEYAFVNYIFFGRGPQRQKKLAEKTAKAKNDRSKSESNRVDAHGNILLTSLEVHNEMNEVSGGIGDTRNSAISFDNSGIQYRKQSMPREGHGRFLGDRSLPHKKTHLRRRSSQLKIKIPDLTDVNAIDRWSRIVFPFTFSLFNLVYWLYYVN
The subject of a further data set is Sprague-Dawley rats. As to the kind of experiment: Precipitated withdrawal/acute dependence: responding 60 min after diazepam bolus. In kind it is in vivo, rat. Conditions: ligand 3.0 mg/kg; FIG. 12B; N=5. The procedure:
Acute dependence can occur after single exposures to the benzodiazepine chlordiazepoxide, but not to an α2/3GABAA selective ligand (Fischer et al. 2013, Psychopharmacology 227: 347-54). Here, the extent to which TPA023B can precipitate withdrawal in rats following a single, large bolus dose of diazepam was studied. […] Once rates of responding were stable, doses of diazepam, the non-selective benzodiazepine antagonist flumazenil, and TPA023B were administered prior to the session.

The conditions of data set [6]: rhesus monkey, cited from earlier work.
A further data set deals with GABAA receptor subtypes. The conditions noted are these: cited from earlier work.
Another data set concerns rats. As to the kind of experiment: Blockade of diazepam suppression of responding (30 min pretreatment). The class given is in vivo, rat. Conditions: ligand 3.0 mg/kg; diazepam 30 min pretreatment; FIG. 12A; N=5. As for the experimental part: This profile is very similar to that of TPA023B despite the structural differences. […] For both compounds, we chose 3.0 mg/kg, i.p., in rats based on published literature or pilot studies in our laboratories.
FIGS. 12A and 12B illustrate the results of acute dependency testing using these compounds.

Data set [7] has as its system rhesus monkeys. The conditions noted are these: visual recognition memory and spatial working memory; cited from earlier work.
Data set [8] concerns rhesus monkeys. The experiment in a line: i.v. self-administration under progressive-ratio (PR) schedule. Conditions: dose at which self-administration was highest; n=4 monkeys; FIG. 5. The class given is in vivo, rhesus monkey. The source says:
The abuse potential of novel compounds can be determined by use of i.v. self-administration procedures, in which a compound is available to a subject previously trained to press a lever to obtain a known drug of abuse. Our standard procedure is to use a progressive-ratio (PR) schedule, in which an increasing number of responses are required to obtain an injection. The last response requirement completed is referred to as a “break point” (BP) and represents the maximum amount of “work” a subject will perform to obtain the drug or compound.
In the present example, eight rhesus monkeys (4 females, 4 males) were trained to respond under a schedule of i.v. midazolam (a conventional benzodiazepine) injection at 0.03 mg/kg/injection. Once self-administration had been acquired (>20 injections/daily 2-hour sessions), monkeys were trained under the PR schedule as described by Shinday et al. (2013). Daily experimental sessions consisted of five components, each made up of four trials (i.e., 20 trials total). […]
In order to directly compare lorazepam and TPA023B self-administration, we here analyzed BP values at the doses that maintained the highest level of mean injections/session and compared these BP values with those obtained after vehicle tests.

Data set [9] deals with patients with Generalized Anxiety Disorder. Conditions: cited from earlier work.

Sequence of α1 subunit-containing GABAA receptors (P14867 28-456): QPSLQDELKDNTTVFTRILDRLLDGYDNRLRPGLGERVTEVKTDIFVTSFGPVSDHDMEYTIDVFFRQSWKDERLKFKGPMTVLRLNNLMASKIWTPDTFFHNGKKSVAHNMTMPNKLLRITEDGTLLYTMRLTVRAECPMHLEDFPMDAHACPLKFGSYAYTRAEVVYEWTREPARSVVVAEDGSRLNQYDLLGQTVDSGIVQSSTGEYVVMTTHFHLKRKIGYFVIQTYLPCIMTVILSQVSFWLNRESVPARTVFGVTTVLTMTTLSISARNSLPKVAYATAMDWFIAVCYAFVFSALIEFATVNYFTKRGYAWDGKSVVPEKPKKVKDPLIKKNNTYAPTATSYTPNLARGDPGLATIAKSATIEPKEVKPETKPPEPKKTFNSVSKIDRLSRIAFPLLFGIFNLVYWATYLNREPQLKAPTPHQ
Sequence of α1 subunit-containing GABAA receptors (P18507 40-475): as the sequence (P18507 40-475) above
Sequence of α1 subunit-containing GABAA receptors (P28472 26-473 partner): as the sequence (P28472 26-473 partner) above
Sequence of α2 subunit-containing GABAA receptors (P47869 29-451): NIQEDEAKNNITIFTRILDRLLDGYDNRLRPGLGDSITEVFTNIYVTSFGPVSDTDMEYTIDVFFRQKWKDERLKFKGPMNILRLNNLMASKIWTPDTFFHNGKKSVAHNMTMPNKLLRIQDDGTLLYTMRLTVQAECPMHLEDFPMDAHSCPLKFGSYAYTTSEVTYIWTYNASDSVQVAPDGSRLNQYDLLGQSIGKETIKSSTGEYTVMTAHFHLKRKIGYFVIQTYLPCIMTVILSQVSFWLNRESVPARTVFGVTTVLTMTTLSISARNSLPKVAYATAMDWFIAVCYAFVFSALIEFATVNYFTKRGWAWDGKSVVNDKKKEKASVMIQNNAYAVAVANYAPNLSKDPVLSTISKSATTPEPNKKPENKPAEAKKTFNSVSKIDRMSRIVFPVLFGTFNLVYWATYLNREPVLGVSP
Sequence of α2 subunit-containing GABAA receptors (P18507 40-475): as the sequence (P18507 40-475) above
Sequence of α2 subunit-containing GABAA receptors (P28472 26-473 partner): as the sequence (P28472 26-473 partner) above
Sequence of α5 subunit-containing GABAA receptors (P31644 32-462): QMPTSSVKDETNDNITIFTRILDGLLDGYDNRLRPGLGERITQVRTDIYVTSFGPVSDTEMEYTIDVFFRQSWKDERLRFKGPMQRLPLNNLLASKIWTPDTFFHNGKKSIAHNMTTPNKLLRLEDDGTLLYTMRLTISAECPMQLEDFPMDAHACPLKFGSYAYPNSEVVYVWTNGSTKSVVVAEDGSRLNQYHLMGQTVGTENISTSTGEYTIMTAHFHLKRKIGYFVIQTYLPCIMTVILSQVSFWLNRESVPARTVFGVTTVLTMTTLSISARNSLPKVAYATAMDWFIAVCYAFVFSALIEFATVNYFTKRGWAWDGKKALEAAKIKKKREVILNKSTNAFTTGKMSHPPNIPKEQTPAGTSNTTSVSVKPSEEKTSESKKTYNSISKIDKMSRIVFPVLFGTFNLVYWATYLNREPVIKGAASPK
Sequence of α5 subunit-containing GABAA receptors (P18507 40-475): as the sequence (P18507 40-475) above
Sequence of α5 subunit-containing GABAA receptors (P28472 26-473 partner): as the sequence (P28472 26-473 partner) above

Regarding `CC(C)(O)c1ccn2c(-c3ccc(F)c(-c4cccnc4)c3)cnc2n1` [MRK-623], the “Subtype α1” value in data set [1] is given as “none”. In [2], the “Subtype α5” value was “none”. The Pharmacokinetics entry in data set [3] is “poor”. Moreover, in [4], the “Subtype α2” value is “partial”. Moreover, the “Subtype α3” value in data set [5] was “partial”. For the same compound, the “rates of responding after 60-min pretreatment of diazepam (acute dependence)” value with Sprague-Dawley rats is “neither L-838,417 nor MRK-623 altered rates of responding”. Besides, in [6] (in vivo), the “bioavailability (in words)” value is “fair”. Besides, in data set [6], the half-life is 30 min. For the same compound, in the data set with GABAA receptor subtypes, the functional/subtype selectivity entry was “α2/3GABAA subtype selective”. Moreover, the “ability of diazepam to suppress rates of responding” value in the data set on rats was “blocked”.

Consider `Cc1nnc2n1-c1ccc(Cl)cc1C(c1ccccc1Cl)=NC2` [triazolam, reference compound], for which the “accuracy in DMTS and SOSS tasks” value with rhesus monkeys [7] is reported as “significantly reduced accuracy”.

With `O=C1Nc2ccc(Cl)cc2C(c2ccccc2Cl)=NC1O` (centres unmarked) [lorazepam, reference compound], the “median break point (BP), highest response requirement” value in the data set on rhesus monkeys [8] amounted to 320.

With `CCn1ncnc1COc1nn2c(-c3ccccc3F)nnc2cc1C(C)(C)C` [TPA023], in [1], the “Subtype α1” value is “none” and the “efficacy at α1GABAA subtype” value was “no efficacy”. Besides, in [9] (human, in vivo), the “adverse effects leading to halt in Phase II” value is “cataract development”. Moreover, the “anxiolysis in patients with Generalized Anxiety Disorder” value in data set [9] (post hoc analyses, three clinical trials) is recorded as “significant anxiolysis”. The “Subtype α5” value in data set [2] is recorded as “none”. The Pharmacokinetics entry in data set [3] was “good”. Further, in [4], the “Subtype α2” value is listed as “partial”. For the same compound, the “Subtype α3” value in data set [5] is listed as “partial”.

What is called half-life is the time in which the quantity being followed falls by half.
